What was measured:
Format in all cases: cell-based, mouse
[1] = test system: fatty acid oxidation in primary hepatocytes; assay: Oxidation of [3H]palmitate in primary hepatocytes
Description: Primary hepatocytes were isolated using a two-step perfusion protocol, based on previous methods (Lin et al., (2004) Cell 119, 121-135.). Briefly, livers were perfused first with Hanks balanced salt solution (HBSS, pH 7.4), containing glucose (1.0 g/l), EDTA (0.2 g/l), HCO3 (2.1 g/l) and KCl (0.4 g/l) for 5 minutes. Next, livers were perfused for 15 min with a collagenase buffer (pH 7.4, Invitrogen). After perfusion, livers were dissected, minced, filtered, and hepatocytes purified using Percoll (Sigma) and plated (500,000 cells per well) on collagen coated 6 well plates (BD Biosciences) in DMEM (4.5 g/l glucose) containing 10% FBS, 2 mM pyruvate, 2% Pen/strep, […] and 100 nM insulin. Typical primary hepatocyte isolations yielded 12-14×10^6 cells per liver with 96%-98% cell viability (assessed by Trypan blue exclusion assay). Two hours after plating, medium was replaced with maintenance medium (DMEM with 0.2% BSA, 2 mM pyruvate, 2% Pen/strep, 0.1 mM dexamethasone and 1 nM insulin). Fatty acid oxidation assays were performed one day after isolation.
Cells were incubated overnight in culture medium containing 100 μM palmitate (C16:0) and 1 mM carnitine. In the final 2 hours of incubation, cells were pulsed with 1.7 μCi [9,10(n)-^3H]palmitic acid (GE Healthcare), and the medium was collected to analyze the released ^3H2O, formed during cellular oxidation of [^3H]palmitate. In brief, medium was TCA precipitated, supernatants were neutralized with NaOH and loaded onto ion exchange columns packed with DOWEX 1×2-400 resin (Sigma). The radioactive product was eluted with water and quantitated by liquid scintillation counting. Oxidation of [^3H]palmitate was normalized to protein content using Bio-Rad DC protein assay.
Ultimately, the up-regulation of lipid catabolism gene expression during nutrient deprivation leads to enhanced rates of fatty acid oxidation. […] To test this model, the rates of oxidation of palmitate, a saturated long chain fatty acid, were analyzed in primary MEFs and primary hepatocytes isolated from SIRT4 WT and KO mice. […]

PPARα target gene Pdk4 = assay: Induction of PPARα target gene Pdk4 in MEFs exposed to WY14643 (quantitative RT-PCR); settings: 50 μM WY14643
Description: Mouse embryonic fibroblasts (MEFs) were isolated on embryonic day 12.5-14.5 from heterozygous females that were mated with heterozygous males. Primary MEFs were cultured in DMEM containing 10% FBS and 0.1 mM BME and were used between passages 2 and 5.
RNA was isolated from frozen liver tissue of overnight fasted mice or from cells using Trizol (Invitrogen) according to the manufacturer's instructions and further purified using RNeasy columns (Qiagen). Amplification and detection of target and reference cDNA samples was performed on a Lightcycler 480 (Roche) using Lightcycler 480 Sybr Green I Mastermix (Roche). A standard curve was generated for all genes using serial dilutions of a pool prepared from all cDNA samples. mRNA levels of target genes were normalized using beta 2 microglobulin (B2m), peptidyl-prolyl isomerase (Ppia) and ribosomal protein 16 (Rps16) as reference genes.
To determine whether SIRT4 is a bona fide repressor of PPARα in a cell-autonomous manner, the induction of the PPARα target gene Pdk4 was examined in SIRT4^−/− and SIRT4′^+/+ mouse embryonic fibroblast (MEF) cell lines exposed to the PPARα agonist WY14643 (WY), as described above.

[2] = test system: mitochondrial fatty acid oxidation in primary MEFs; assay: Oxidation of [3H]palmitate in primary MEFs; settings: SIRT4 KO and WT MEFs (both cell types)
Description: Mouse embryonic fibroblasts (MEFs) were isolated on embryonic day 12.5-14.5 from heterozygous females that were mated with heterozygous males. Primary MEFs were cultured in DMEM containing 10% FBS and 0.1 mM BME and were used between passages 2 and 5. Cells were incubated overnight in culture medium containing 100 μM palmitate (C16:0) and 1 mM carnitine. In the final 2 hours of incubation, cells were pulsed with 1.7 μCi [9,10(n)-^3H]palmitic acid (GE Healthcare), and the medium was collected to analyze the released ^3H2O, formed during cellular oxidation of [^3H]palmitate. In brief, medium was TCA precipitated, supernatants were neutralized with NaOH and loaded onto ion exchange columns packed with DOWEX 1×2-400 resin (Sigma). The radioactive product was eluted with water and quantitated by liquid scintillation counting. Oxidation of [^3H]palmitate was normalized to protein content using Bio-Rad DC protein assay. […] To test this model, the rates of oxidation of palmitate, a saturated long chain fatty acid, were analyzed in primary MEFs and primary hepatocytes isolated from SIRT4 WT and KO mice. The CPT1a inhibitor, etomoxir, (Baht and Saggerson, 1989) was used to specifically block mitochondrial import of fatty acids.

In the case of `NC(=O)C1CCCc2c1[nH]c1ccc(Cl)cc21` (stereo not drawn) [Ex 527], the “level of Fatty Acid Oxidation” value ([1]; SIRT4 KO hepatocytes) is reported as “significantly reduced” and the “rate of Fatty Acid Oxidation” value ([1]; WT hepatocytes) is reported as “did not significantly alter”.
In the case of `Cc1cccc(Nc2cc(Cl)nc(SCC(=O)O)n2)c1C` [WY14643], the “stimulation of Pdk4 expression compared with WT cells” value (PPARα target gene Pdk4; MEFs lacking SIRT4) is reported as “more than doubled” and the “increase in Pdk4 expression” value (PPARα target gene Pdk4; wild-type MEFs) is reported as 2 fold.
For `CCOC(=O)[C@@]1(CCCCCCOc2ccc(Cl)cc2)CO1` [etomoxir], the “mitochondrial fatty acid oxidation ([3H]palmitate)” value ([1]; both WT and SIRT4 KO hepatocytes) was “effectively blocked mitochondrial fatty acid oxidation” and the “fatty acid oxidation ([3H]palmitate)” value [2] was “inhibited fatty acid oxidation strongly”.
